# Assay results reported in patent publication US9051310B2, “Nicotinamide derivative or salt thereof” (FUJIFILM Corporation, priority 2011, dated 2015).
# Key:
# [1] = tested on: THP-1 cells (phagocytosis of opsonized Escherichia coli); experiment: Antibody-dependent phagocytosis assay; format: cell-based; conditions: Homo sapiens; IFNγ differentiated THP-1 cells, opsonized pHrodo Escherichia coli, 3 hours; read-out: IC50 upon phagocytosis inhibition
# Procedure: THP-1 cells (2×10^5 cells/ml), which were human monocytoid cells, were cultured in the presence of 10 ng/ml IFNγ for 2 days, and they were induced to differentiate into macrophage-like cells. The differentiation-induced THP-1 cells were recovered, and the cells (5×10^4 cells/well) were then allowed to react with a predetermined concentration of test compound at room temperature for 30 minutes. Thereafter, Escherichia coli (Life Technologies) labeled with a pH-sensitive dye (pHrodo) was subjected to opsonization using an anti-Escherichia coli antibody (Life Technologies). Then, the resultant was added to the THP-1 cells obtained above, followed by incubation at 37° C. for 3 hours. Opsonized Escherichia coli and cell-permeable fluorescent dye (Calcein AM) were simultaneously added thereto, followed by quantitative determination of phagocytosis of opsonized Escherichia coli in viable cells using an IN Cell Analyzer.
# [2] = tested on: THP-1 cells (TNFα secretion on human IgG-coated plate); experiment: TNFα generation assay; format: cell-based; conditions: IFN-γ differentiated THP-1 cells, 7 hours, AlphaLISA, read-out: IC50 of TNFα generation inhibitory activity
# How it was run: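 Secreted TNFα was measured by AlphaLISA after 7 h of culture on human IgG-coated wells (coating at 10 μg/ml), with 5×10^4 cells/well. Before plating, the cells had been treated with compound for 30 min at room temperature. The cells were macrophage-like THP-1, produced by a 2-day exposure to 10 ng/ml IFN-γ.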
# [3] = molecular target: T1, glutathione S-transferase (GST)-linked full-length human Syk protein (Homo sapiens, UniProt P43405); experiment: Syk enzyme assay; format: biochemical; conditions: 0.83 nM Syk, time-resolved fluorescence; read-out: IC50 of Syk-inhibitory activity
# T1 construct: glutathione S-transferase (GST)-linked full-length human Syk protein; purchased Carna Biosciences; host or cells: Baculovirus expression system
# How it was run: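 Phosphotyrosine on a biotin-peptide substrate (0.5 μM) was read by time-resolved fluorescence at 615 and 665 nm with Eu-anti-pTyr antibody and APC-streptavidin after 1 h EDTA stop.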
IC50 [1],IC50 [2],IC50 [3],Compound
1 to 3 µM,0.13 to 0.2 µM,< 0.01 µM,"COC[C@@H](Nc1nc(Nc2ccc3c(c2)c(OC)nn3C)c(C(N)=O)cc1F)[C@H](C)N [Example 2-121, 6-(((2S,3S)-3-amino-1-methoxybutan-2-yl)amino)-5-fluoro-2-((3-methoxy-1-methyl-1H-indazol-5-yl)amino)nicotinamide]"
< 1 µM,0.065 to 0.13 µM,< 0.01 µM,"NC(=O)c1cc(F)c(N[C@@H]2CCOC[C@@H]2N)nc1Nc1cccc2c1cnn2CC(F)F [Example 2-332, 6-(((3R,4R)-3-aminotetrahydro-2H-pyran-4-yl)amino)-2-((1-(2,2-difluoroethyl)-1H-indazol-4-yl)amino)-5-fluoronicotinamide]"
1 to 3 µM,0.13 to 0.2 µM,< 0.01 µM,"CCCC[C@@H](Nc1nc(Nc2cncc3c2cnn3CC)c(C(N)=O)cc1F)[C@H](C)N [Example 2-321, 6-(((2S,3R)-2-aminoheptan-3-yl)amino)-2-((1-ethyl-1H-pyrazolo[3,4-c]pyridin-4-yl)amino)-5-fluoronicotinamide]"
1 to 3 µM,0.13 to 0.2 µM,0.01 to 0.05 µM,"CC[C@H](N)[C@@H](C)Nc1nc(Nc2ccc3c(c2)c(C)nn3CCOC)c(C(N)=O)cc1F [Example 2-136, 6-(((2R,3S)-3-aminopentan-2-yl)amino)-5-fluoro-2-((1-(2-methoxyethyl)-3-methyl-1H-indazol-5-yl)amino)nicotinamide]"
1 to 3 µM,0.065 to 0.13 µM,0.01 to 0.05 µM,"CC[C@H](N)[C@@H](C)Nc1nc(Nc2cnc(C)c(F)c2)c(C(N)=O)cc1F [Example 2-270, 6-(((2R,3S)-3-aminopentan-2-yl)amino)-5-fluoro-2-((5-fluoro-6-methylpyridin-3-yl)amino)nicotinamide]"
1 to 3 µM,0.13 to 0.2 µM,0.01 to 0.05 µM,"COCCn1nc(C)c2cc(Nc3nc(N[C@H](COC)[C@H](C)N)c(F)cc3C(N)=O)ccc21 [Example 2-135, 6-(((2S,3S)-3-amino-1-methoxybutan-2-yl)amino)-5-fluoro-2-((1-(2-methoxyethyl)-3-methyl-1H-indazol-5-yl)amino)nicotinamide]"
1 to 3 µM,0.065 to 0.13 µM,< 0.01 µM,CC[C@@H](Nc1nc(Nc2ccc3c(c2)c(N(C)C)nn3C)c(C(N)=O)cc1F)[C@H](C)N [Example 2-4]
< 1 µM,0.065 to 0.13 µM,< 0.01 µM,"CCC[C@@H](Nc1nc(Nc2ccc3c(c2)c(OC)nn3CCOC)c(C(N)=O)cc1F)[C@H](C)N [Example 2-126, 6-(((2S,3R)-2-aminohexan-3-yl)amino)-5-fluoro-2-((3-methoxy-1-(2-methoxyethyl)-1H-indazol-5-yl)amino)nicotinamide]"
1 to 3 µM,0.13 to 0.2 µM,< 0.01 µM,"CCn1ncc2c(Nc3nc(N[C@H](C4CCC4)[C@H](C)N)c(F)cc3C(N)=O)cncc21 [Example 2-406, 6-(((1R,2S)-2-amino-1-cyclobutylpropyl)amino)-2-((1-ethyl-1H-pyrazolo[3,4-c]pyridin-4-yl)amino)-5-fluoronicotinamide]"
1 to 3 µM,0.13 to 0.2 µM,0.01 to 0.05 µM,"CNc1ncc(Nc2nc(N[C@H](C3CCC3)[C@H](C)N)c(F)cc2C(N)=O)cc1F [Example 2-275, 6-(((1R,2S)-2-amino-1-cyclobutylpropyl)amino)-5-fluoro-2-((5-fluoro-6-(methylamino)pyridin-3-yl)amino)nicotinamide]"
< 1 µM,0.065 to 0.13 µM,< 0.01 µM,"CC(C)C[C@@H](Nc1nc(Nc2ccnc(N3CCOCC3)c2F)c(C(N)=O)cc1F)[C@H](C)N [Example 2-235, 6-(((2S,3R)-2-amino-5-methylhexan-3-yl)amino)-5-fluoro-2-((3-fluoro-2-morpholinopyridin-4-yl)amino)nicotinamide]"
1 to 3 µM,0.13 to 0.2 µM,< 0.01 µM,"CC(C)C[C@@H](Nc1nc(Nc2cncc(-n3cccn3)c2)c(C(N)=O)cc1F)[C@H](C)N [Example 2-70, 2-((5-(1H-pyrazol-1-yl)pyridin-3-yl)amino)-6-(((2S,3R)-2-amino-5-methylhexan-3-yl)amino)-5-fluoronicotinamide]"
1 to 3 µM,–,< 0.01 µM,"CC[C@H](N)[C@@H](C)Nc1nc(Nc2cc(F)c3c(c2)c(N(C)C)nn3C)c(C(N)=O)cc1F [Example 2-194, 6-(((2R,3S)-3-aminopentan-2-yl)amino)-2-((3-(dimethylamino)-7-fluoro-1-methyl-1H-indazol-5-yl)amino)-5-fluoronicotinamide]"
1 to 3 µM,–,0.01 to 0.05 µM,"CC(C)C[C@@H](Nc1nc(Nc2cc(N3CCOCC3)ncc2F)c(C(N)=O)cc1F)[C@H](C)N [Example 2-236, 6-(((2S,3R)-2-amino-5-methylhexan-3-yl)amino)-5-fluoro-2-((5-fluoro-2-morpholinopyridin-4-yl)amino)nicotinamide]"
1 to 3 µM,–,0.01 to 0.05 µM,"COCCOc1cc(Nc2nc(N[C@H](Cc3ccccc3)[C@H](C)N)c(F)cc2C(N)=O)ccn1 [Example 2-427, 6-(((2R,3S)-3-amino-1-phenylbutan-2-yl)amino)-5-fluoro-2-((2-(2-methoxyethoxy)pyridin-4-yl)amino)nicotinamide]"
< 1 µM,–,0.01 to 0.05 µM,"COc1ccc([C@@H](Nc2nc(Nc3cnc(C)c(-n4nccn4)c3)c(C(N)=O)cc2F)[C@H](C)N)cc1 [Example 2-338, 6-(((1R,2S)-2-amino-1-(4-methoxyphenyl)propyl)amino)-5-fluoro-2-((6-methyl-5-(2H-1,2,3-triazol-2-yl)pyridin-3-yl)amino)nicotinamide]"
< 1 µM,–,< 0.01 µM,"COc1nn(C)c2c(F)cc(Nc3nc(N[C@H](C4CCC4)[C@H](C)N)c(F)cc3C(N)=O)cc12 [Example 2-158, 6-(((1R,2S)-2-amino-1-cyclobutylpropyl)amino)-5-fluoro-2-((7-fluoro-3-methoxy-1-methyl-1H-indazol-5-yl)amino)nicotinamide]"
< 1 µM,–,< 0.01 µM,"CCn1nc(OC)c2cc(Nc3nc(N[C@H](CC4CC4)[C@H](C)N)c(F)cc3C(N)=O)ccc21 [Example 2-50, 6-(((2R,3S)-3-amino-1-cyclopropylbutan-2-yl)amino)-2-((1-ethyl-3-methoxy-1H-indazol-5-yl)amino)-5-fluoronicotinamide]"
1 to 3 µM,–,< 0.01 µM,"CCn1ncc2c(Nc3nc(N[C@@H](CN)CC(C)C)c(F)cc3C(N)=O)cncc21 [Example 2-405, (R)-6-((1-amino-4-methylpentan-2-yl)amino)-2-((1-ethyl-1H-pyrazolo[3,4-c]pyridin-4-yl)amino)-5-fluoronicotinamide]"
1 to 3 µM,–,< 0.01 µM,"CCC[C@@H](Nc1nc(Nc2cccc3c2cnn3CCOC)c(C(N)=O)cc1F)[C@H](C)N [Example 2-305, 6-(((2S,3R)-2-aminohexan-3-yl)amino)-5-fluoro-2-((1-(2-methoxyethyl)-1H-indazol-4-yl)amino)nicotinamide]"
1 to 3 µM,–,0.05 to 0.1 µM,"NC(=O)c1cc(F)c(N[C@@H]2CCOC[C@@H]2N)nc1Nc1cnc(N2CCOCC2)c(F)c1 [Example 2-217, 6-(((3R,4R)-3-aminotetrahydro-2H-pyran-4-yl)amino)-5-fluoro-2-((5-fluoro-6-morpholinopyridin-3-yl)amino)nicotinamide]"
